Assay results: patent US12194034B2, “Neutrophil exocytosis inhibitors” (IMMUNYX PHARMA LTD., priority 2021, dated 2025)

Experiments:
human neutrophils [1] = assay: NETosis assay; assay type: cell-based; conditions: PMA 50 nM; for PMA-induced NETosis (NETosis positive events over time): T1/T3 10 μM, Trifluoperazine 100 ng/ml, Incucyte, 8 hr
Method: NETosis assay: The assay was carried out as previously described (Gupta et al., “A High-Throughput Real-Time Imaging Technique To Quantify NETosis and Distinguish Mechanisms of Cell Death in Human Neutrophils.”, J Immunol. 2018; 200:869-879, herein incorporated by reference in its entirety). Briefly, human neutrophils (2×10^6 cells/mL) were incubated for 5 minutes in the dark at RT with the NUCLEAR-ID Red DNA dye to stain nuclei (Enzo Life Sciences, Inc.). Cells were washed twice and resuspended in 1 mL of RPMI media. NUCLEAR-ID Red stained-neutrophils were plated (20,000 neutrophils per 100 μL per well) in a 96-well flat microplate. Stimulation of neutrophils NETosis was performed with PMA alone (50 nM), or with PMA in the presence of T1 compound (10 μM) or T3 compound (10 μuM). Unstimulated neutrophils served as a negative control. Neutrophils stimulated with PMA in the presence of Trifluoperazine (Stelazine, 100 ng/ml) were used as positive control. A final concentration of 0.1 μM of the membrane impermeable dsDNA fluorescent Sytox® Green nucleic acid stain (Life Technologies, Inc.) was added to the plated cells concomitantly with the stimuli. Neutrophils were imaged within 10 minutes of plating using phase contrast, red (800 ms exposure) and green (400 ms exposure) channels in the IncuCyte ZOOM™ platform (Essen BioScience, Inc.), located within a cell incubator at 37° C. with 5% CO2. Four image sets from distinct regions per well using a 20x dry objective lens were taken every 20-30 minutes, for 8 hr. For red channel, filters were applied to exclude objects below radius of 10 μm, fluorescence threshold of 0.5 red corrected units, and area of 15 μm^2. The filters applied the green channel excluded objects below the radius of 10 μm, fluorescence threshold of 1.00 green corrected units, and area of 100 μm^2. The green object count divided by the red object count represents the percentage of cells going through NETosis of total neutrophils. Liposome preparation: 2.5% DSPE-PEG3400-Maleimide liposomes were prepared in 250 mM ammonium sulfate. Liposomes were prepared at a molar ration of 56.5:41: 2.5:0.09 of HSPC: Cholesterol: DSPE-PEG-Mal: DilC18 (5)-DS.
Besides degranulation, neutrophils can kill pathogens extracellularly by releasing neutrophil extracellular traps (NETs), a process known as NETosis. Examination of NETosis induced by PMA was monitored by an Incucyte live-cell analysis system (FIG. 4). PMA treatment produced a steady increase in NETosis positive events starting at 2 hours after treatment. […] An increase was only observed after 4 hours when T1 was used and after 5 hours when T3 was used.

human neutrophils [2] = conditions: by inhibiting NAD(P)H; cited from earlier work
human neutrophils [3] = conditions: cited from earlier work
human neutrophils [4] = conditions: cited from earlier work; remark: listed apart in the source
DSS colitis model mice = assay: DSS colitis mouse model; assay type: in vivo, C57BL/6 mice; conditions: 3% DSS 5 days; 2.5 mg/kg of T3 on days 5, 7 and 9
Method: Next, the ability of T3 administration, to treat colitis, a disease caused at least in part by neutrophil cytotoxicity, was tested in a mouse model. Colitis was induced in C57BL/6 mice by administration of 3% dextran sulfate sodium (DSS) for 5 consecutive days in drinking water. 2.5 mg/kg of T3, in its three formulations, was administered on days 5, 7 and 9. Colitis induction by DSS caused a pronounced shortening of the mouse colon.
Lower doses of TENN-T3 were also tested. The targeted liposomes were administered at days 5 and 7 and mice were sacrificed on day 10 and colon length was measured.

[5] = test system: peripheral blood neutrophils; assay: LPS-induced inflammation mouse model, surface CD11b of peripheral blood neutrophils; assay type: in vivo, Balb/C mice; conditions: LPS 1 mg/kg intraperitoneal; T3 (Z isomer) 3 mg/kg IV after 1 hour; blood after 3 hours
Method: The in-vivo effect of the three compositions of T3 was examined in a mouse model of inflammation. Balb/C mice were intraperitoneal injected with 1 mg/kg of LPS to induce inflammation and neutrophil toxicity. After 1 hour, T3—free molecule, T3 within a liposome, and T3 within a targeted liposome (TENN-T3) were IV administered at a final concentration of 3 mg/kg body weight. After 3 hours 0.5 mL of blood was drawn from each mouse and degranulation of peripheral blood neutrophils was evaluated by flow cytometry analysis of surface CD11b levels (neutrophils were identified by Ly6G staining). […] Overall, it is clear that T3 inhibits neutrophil activation in vivo and that targeting greatly enhances the effect.

## CCN(CC)CCC(C)(C)C(=O)/C(=C/c1cccc([N+](=O)[O-])c1)n1cncn1 [T1]
Human neutrophils [1]; compound 10 μM
  time after which an increase in NETosis was observed: > 4 h
Human neutrophils [1]
  PMA-induced NETosis (NETosis positive events over time): initially inhibited an increase in NETosis completely

## c1ccc2c(c1)[I+]c1ccccc1-2 [DPI, Diphenylenciodonium]
Human neutrophils [2]
  ROS production (known effect): nearly completely abolish ROS production

## CC(C)(C)C(=O)/C(=C/c1cccc([N+](=O)[O-])c1)n1cncn1 [Nexinhib-20]
Human neutrophils [3]
  inhibition of degranulation (known): known to inhibit degranulation

## CN1CCN(CCCN2c3ccccc3Sc3ccc(C(F)(F)F)cc32)CC1 [Trifluoperazine, reference compound]
Human neutrophils [1]
  PMA-induced NETosis (NETosis positive events over time): steady reduction
Human neutrophils [4]
  inhibition of NETosis (known): known inhibitor of NETosis

## CN1CCC(N2CCC(C(=O)/C(=C/c3cccc([N+](=O)[O-])c3)n3cncn3)CC2)CC1 [T3]
Human neutrophils [1]; compound 10 μM
  NETosis events compared with control: very similar to control
  time after which an increase in NETosis was observed: > 5 h
Human neutrophils [1]
  PMA-induced NETosis (NETosis positive events over time): initially inhibited an increase in NETosis completely
DSS colitis model mice
  colon length: comparable to a negative control
[5]
  reduction in degranulation (surface CD11b of blood neutrophils): moderate but not statistically significant reduction
